According to patent publication US20130029967A1, “Fused Imidazo [3,2 - D] Pyrazines as P13 Kinase Inhibitors” (Centro Nacional de Investigaciones Oncologicas (CNIO), priority 2009, published 2013):
Read-outs that look alike come from different tables or passages of the source.

Key:
[1] = target: T1, PI3K (p110α/p85α) (Homo sapiens, UniProt P42336); test: PI3K activity assay (ADP Hunter Plus); format: biochemical
T1 construct: purchased Carna Biosciences 07CBS-0402A
Description: The kinase activity was measured by using the commercial ADP Hunter™ Plus assay available from DiscoveRx (#33-016), which is a homogeneous assay to measure the accumulation of ADP, a universal product of kinase activity. […] Reaction was carried out for 1 hour at 25° C. Reagent A and B were sequentially added to the wells and plates were incubated for 30 min at 37° C. […] Values were normalized against the control activity included for each enzyme (i.e., 100% PI3 kinase activity, without compound). These values were plot against the inhibitor concentration and were fit to a sigmoid dose-response curve by using the Graphed software.

[2] = tested on: phospho-AKT (Ser473) in Osteosarcoma U2OS cells; test: PI3K cellular activity, ELISA (phospho-AKT Ser473); format: cell-based; details: Homo sapiens, cellular p-AKT
Description: Cell culture: The cell lines were obtained from the American Type Culture Collection (ATCC). U2OS (human osteosarcoma) was cultured in Dulbecco's modified Eagle's medium (DMEM). PC3 (human prostate carcinoma), MCF7 (human breast cardinoma), HCT116 (human colon carcinoma), […], U251 (human glyoblastoma) were grown in RPMI. All media were supplemented with 10% fetal bovine serum (FBS) (Sigma) and antibiotics-antimycotics. Cell were maintained in a humidified incubator at 37° C. with 5% CO2 and passaged when confluent using trypsin/EDTA.
Activity was measured as endogenous levels of phospho-AKT (Ser473) protein. Osteosarcoma U2OS cells were plated in 96 Poly-D-Lysine coating tissue culture plates (18.000 cells/well). After the treatment with serial dilutions of the compound during 3 h, the cells were fixed directly in the wells with 4% paraformaldehide. After fixing, individual wells went through the same series of steps used for a conventional immunoblot: including blocking with 5% BSA, incubation with 1/1000 of primary antibody-AKT ([…]) in PBS containing 5% BSA at 4° C. overnight (Cell Signalling), washing and incubation with second antibody HRP-anti-mouse IgG for 1 h at RT (Amersham). After the addition of SuperSignal ELISA Femto maximum sensitivity chemiluminescent substrate (Pierce) the results were read in a luminescence plate reader (Victor).

[3] = PI3Kα, quantitative results, read-out: PI3K α IC50
[4] = PI3Kα, class symbols, read-out: PI3K α IC50 (semi-quantitative)
[5] = quantitative results, read-out: PI3K α IC50

T1 sequence (P42336 whole entry): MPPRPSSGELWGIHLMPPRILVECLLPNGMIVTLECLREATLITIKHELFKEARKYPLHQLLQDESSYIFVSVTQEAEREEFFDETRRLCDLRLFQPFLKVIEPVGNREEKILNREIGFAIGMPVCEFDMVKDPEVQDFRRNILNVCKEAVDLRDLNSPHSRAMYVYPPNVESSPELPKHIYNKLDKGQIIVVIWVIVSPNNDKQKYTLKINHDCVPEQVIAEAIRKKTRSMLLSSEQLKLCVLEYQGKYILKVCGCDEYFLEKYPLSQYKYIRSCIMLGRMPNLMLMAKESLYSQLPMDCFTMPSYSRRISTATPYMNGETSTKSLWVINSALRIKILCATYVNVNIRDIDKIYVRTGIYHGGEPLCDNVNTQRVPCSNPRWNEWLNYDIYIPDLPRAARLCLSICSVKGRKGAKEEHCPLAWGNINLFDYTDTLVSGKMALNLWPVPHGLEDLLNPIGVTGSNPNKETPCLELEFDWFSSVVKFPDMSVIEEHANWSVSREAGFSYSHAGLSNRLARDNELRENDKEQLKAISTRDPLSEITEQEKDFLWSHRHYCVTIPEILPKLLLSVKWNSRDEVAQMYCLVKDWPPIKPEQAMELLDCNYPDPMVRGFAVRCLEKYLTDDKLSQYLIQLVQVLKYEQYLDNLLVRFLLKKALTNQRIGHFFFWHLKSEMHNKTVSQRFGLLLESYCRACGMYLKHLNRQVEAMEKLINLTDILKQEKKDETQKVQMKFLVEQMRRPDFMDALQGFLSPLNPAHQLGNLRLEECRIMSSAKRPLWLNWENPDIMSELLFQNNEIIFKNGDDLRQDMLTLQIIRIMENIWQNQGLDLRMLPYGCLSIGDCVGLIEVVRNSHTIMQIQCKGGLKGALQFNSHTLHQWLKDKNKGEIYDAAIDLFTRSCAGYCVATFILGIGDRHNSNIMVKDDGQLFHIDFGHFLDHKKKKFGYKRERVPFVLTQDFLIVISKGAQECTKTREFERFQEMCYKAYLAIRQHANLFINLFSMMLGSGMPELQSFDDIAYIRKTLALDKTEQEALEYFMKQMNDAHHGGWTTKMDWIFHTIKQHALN
T1 sequence (P27986 whole entry partner): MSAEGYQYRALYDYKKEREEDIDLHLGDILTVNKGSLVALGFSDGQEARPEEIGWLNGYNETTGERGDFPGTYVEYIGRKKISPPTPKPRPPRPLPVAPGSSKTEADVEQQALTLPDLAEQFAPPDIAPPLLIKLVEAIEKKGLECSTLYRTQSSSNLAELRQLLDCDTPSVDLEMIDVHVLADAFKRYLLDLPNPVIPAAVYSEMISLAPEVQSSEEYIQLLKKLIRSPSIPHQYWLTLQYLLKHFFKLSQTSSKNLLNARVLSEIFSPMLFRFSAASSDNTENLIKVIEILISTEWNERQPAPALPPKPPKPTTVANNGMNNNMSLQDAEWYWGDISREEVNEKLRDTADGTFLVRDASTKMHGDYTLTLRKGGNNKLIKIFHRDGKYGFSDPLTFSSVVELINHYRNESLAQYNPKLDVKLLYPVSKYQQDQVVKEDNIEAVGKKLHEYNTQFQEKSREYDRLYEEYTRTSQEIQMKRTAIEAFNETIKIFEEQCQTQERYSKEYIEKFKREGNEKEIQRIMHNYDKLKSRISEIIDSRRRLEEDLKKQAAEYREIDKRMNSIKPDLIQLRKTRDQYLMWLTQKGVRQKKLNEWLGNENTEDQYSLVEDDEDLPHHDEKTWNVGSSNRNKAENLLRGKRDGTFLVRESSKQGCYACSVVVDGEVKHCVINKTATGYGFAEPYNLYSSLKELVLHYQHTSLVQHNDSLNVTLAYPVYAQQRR

Structure (SMILES) | IC50 [1, 3] | IC50 [1, 5] | other results
CC(C)C(=O)N1CCc2nc3c(N4CCOCC4)nc(-c4cnc(N)nc4)cn3c2C1 [2-43] | 0.55 µM | – | –
CC(C)NC(=O)N1CCc2nc3c(N4CCOCC4)nc(-c4cnc(N)nc4)cn3c2C1 [2-44] | – | – | IC50 [1, 4]: < 0.5 µM
CCN1CCc2nc3c(N4CCOCC4)nc(-c4cnc(N)nc4)cn3c2C1 [2-45] | 0.257 µM | – | –
c1nc(NCC2CC2)ncc1-c1cn2c3c(nc2c(N2CCOCC2)n1)CCN(CC1CC1)C3 [2-47] | – | – | IC50 [1, 4]: > 1 µM
CS(=O)(=O)N1CCc2nc3c(N4CCOCC4)nc(-c4cnc(N)nc4)c(Cl)n3c2C1 [2-49] | 0.009 µM | – | IC50 [2]: 0.095 µM
CCCNC(=O)N1CCc2nc3c(N4CCOCC4)nc(-c4cnc(N)nc4)cn3c2C1 [2-53] | 0.062 µM | – | IC50 [2]: 0.564 µM
CCCNC(=O)N1CCc2nc3c(N4CCOCC4)nc(-c4cnc(N)nc4)c(Cl)n3c2C1 [2-54] | 0.148 µM | – | –
CCCCS(=O)(=O)N1CCc2nc3c(N4CCOCC4)nc(-c4cnc(N)nc4)cn3c2C1 [2-55] | 0.033 µM | – | –
CC(C)S(=O)(=O)N1CCc2nc3c(N4CCOCC4)nc(-c4cnc(N)nc4)cn3c2C1 [2-59] | 0.077 µM | – | IC50 [2]: 0.853 µM
Nc1ncc(-c2cn3c4c(nc3c(N3CCOCC3)n2)CCN(C2CCCCC2)C4)cn1 [2-81] | 0.238 µM | – | –
Nc1ncc(-c2cn3c4c(nc3c(N3CCOCC3)n2)CCN(Cc2ccc(OC(F)(F)F)cc2)C4)cn1 [2-100] | 0.31 µM | – | –
Nc1ncc(-c2cn3c4c(nc3c(N3CCOCC3)n2)CCN(Cc2nccs2)C4)cn1 [2-111] | – | 0.139 µM | –
CN(C)CCN1CCc2c(nc3c(N4CCOCC4)nc(-c4cnc(N)nc4)cn23)C1 [6-04] | – | 0.178 µM | –
Nc1ncc(-c2cn3c4c(nc3c(N3CCOCC3)n2)CN(C(=O)C(F)(F)F)CC4)cn1 [6-14] | – | 0.023 µM | –
CC(C)NC(=O)N1CCc2c(nc3c(N4CCOCC4)nc(-c4cnc(N)nc4)cn23)C1 [6-22] | – | 0.1 µM | –
Nc1ncc(-c2cn3c4c(nc3c(N3CCOCC3)n2)CN(S(=O)(=O)C2CCOCC2)CC4)cn1 [6-28] | – | 0.018 µM | –

The next lines start with results.

IC50 [1, 3] | IC50 [1, 5] | Structure (SMILES) | other results
0.1 µM | – | COC(=O)N1CCc2nc3c(N4CCOCC4)nc(-c4cnc(N)nc4)cn3c2C1 [2-48] | –
0.101 µM | – | Nc1ncc(-c2nc(N3CCOCC3)c3nc4c(n3c2Cl)CN(S(=O)(=O)c2ccccc2)CC4)cn1 [2-58] | –
0.057 µM | – | Nc1ncc(-c2cn3c4c(nc3c(N3CCOCC3)n2)CCN(C(=O)NC2CCCC2)C4)cn1 [2-66] | IC50 [2]: 0.546 µM
0.019 µM | – | N#CCCCS(=O)(=O)N1CCc2nc3c(N4CCOCC4)nc(-c4cnc(N)nc4)cn3c2C1 [2-77] | –
0.34 µM | – | Nc1ncc(-c2cn3c4c(nc3c(N3CCOCC3)n2)CCN(CC2CCCC2)C4)cn1 [2-80] | –
0.175 µM | – | Nc1ncc(-c2cn3c4c(nc3c(N3CCOCC3)n2)CCN(Cc2ccnnc2)C4)cn1 [2-84] | –
0.094 µM | – | CCCC(=O)N1CCc2nc3c(N4CCOCC4)nc(-c4cnc(N)nc4)cn3c2C1 [2-86] | –
0.24 µM | – | COc1cccc(CN2CCc3nc4c(N5CCOCC5)nc(-c5cnc(N)nc5)cn4c3C2)c1 [2-95] | –
0.125 µM | – | Nc1ncc(-c2cn3c4c(nc3c(N3CCOCC3)n2)CCN(Cc2ccncc2)C4)cn1 [2-107] | –
– | 0.007 µM | Nc1ncc(-c2cn3c4c(nc3c(N3CCOCC3)n2)CCN(S(=O)(=O)C2CNC2)C4)cn1 [2-110] | –
– | 0.09 µM | Nc1ncc(-c2cn3c4c(nc3c(N3CCOCC3)n2)CCN(C(=O)Nc2cc(Cl)cc(Cl)c2)C4)cn1 [2-112] | –
– | 0.081 µM | N#Cc1cccc(NC(=O)N2CCc3nc4c(N5CCOCC5)nc(-c5cnc(N)nc5)cn4c3C2)c1 [2-113] | –
– | 0.037 µM | CS(=O)(=O)c1ccccc1CN1CCc2nc3c(N4CCOCC4)nc(-c4cnc(N)nc4)cn3c2C1 [2-117] | –
– | 0.661 µM | CC1(C)Cc2nc3c(N4CCOCC4)nc(-c4cnc(N)nc4)cn3c2C(O)C1 (stereo not drawn) [5-05] | –
– | 0.409 µM | O=C1CCc2nc3c(N4CCOCC4)nc(-c4cccc(O)c4)cn3c2N1 [5-10] | –
– | 0.29 µM | Nc1ncc(-c2nc(N3CCOCC3)c3nc4c(n3c2Cl)CCN(Cc2ccc(F)cc2)C4)cn1 [6-12] | –
– | 0.022 µM | CCS(=O)(=O)N1CCc2c(nc3c(N4CCOCC4)nc(-c4cnc(N)nc4)cn23)C1 [6-20] | –
– | 0.031 µM | N#CCCCS(=O)(=O)N1CCc2c(nc3c(N4CCOCC4)nc(-c4cnc(N)nc4)cn23)C1 [6-29] | –
– | 0.079 µM | COCCC(=O)N1CCc2c(nc3c(N4CCOCC4)nc(-c4cnc(N)nc4)cn23)C1 [6-35] | –
